Laboratory results: paper PMC4388757, “In Vitro and In Vivo Metabolism and Inhibitory Activities of Vasicine, a Potent Acetylcholinesterase and Butyrylcholinesterase Inhibitor” (PLoS ONE, 2015)
Where a name gives a salt, the structure may show the parent alone. Read-outs that look alike come from different tables or passages of the source.

How the values were obtained:
[1] = Metabolite detection in rat bio-specimens (urine, feces, bile, plasma) by UPLC/ESI-QTOF-MS after oral VAS; assay type: in vivo
Description: Bio-specimens (urine, feces, bile and plasma) collected form 18 male rats were used to study the VAS metabolism in vivo. […] Baseline urine and fecal samples were collected before oral administration of VAS. After intraperitoneal injection of urethane (1.4 g/kg), abdominal incision was made for bile sampling and the common bile duct was cannulated with a Closed IV Catheter System (ID = 0.07 cm, Becton Dickinson, USA) to collect bile samples. […] Baseline rat bile was collected before oral administration of VAS. All the samples were stored at −20°C until analysis. Blood was collected from the angular vein of the last six male rats at 0.25, 0.5, 1, and 2 h after oral administration of VAS 50 mg/kg VAS. Plasma was obtained by centrifuging blood at 4000 × g for 10 min, and then stored at −20°C until use.
Up to 1 mL of urine was thoroughly mixed with same volume of acetonitrile, and then centrifuged at 15,000 × g for 10 min. The supernatant was evaporated until dry under nitrogen at 37°C. The residue of the supernatant was re-dissolved in 200 μL of 5% methanol, and then centrifuged at 15,000 × g for 10 min. The supernatant was injected into the chromatographic systems for separation and identification of metabolites.
The supernatant was then evaporated to dryness by a gentle stream of nitrogen at 37°C. The residue was dissolved by 200 μL of 5% methanol and centrifuged at 15,000 × g for 10 min prior to injection.
Plasma or bile (400 μL) was mixed and vortexed with 1200 μL of acetonitrile for […], then centrifuged at 15,000 × g for 10 min at 4°C. Afterward, the supernatant was evaporated until dry by a gentle stream of nitrogen at 37°C. The residue was dissolved by 80 μL of 5% methanol and centrifuged at 15,000 × g for 10 min. The supernatants (5 μL) were used in the UPLC/ESI-QTOF-MS analysis.
Chromatographic analysis was performed on an HSS T3 column (100 mm × 2.1 mm, 1.8 μm particle size; Waters Corporation, Milford, MA, USA) for separation of samples using an ACQUITY UPLC system equipped with a binary solvent manager system and an autosampler. […] The flow rate was 0.4 mL/min. The column and sample-tray temperatures were maintained at 40°C and 10°C, respectively.
A Waters ACQUITY Synapt G2 Q/TOF tandem mass spectrometer was combined with the UPLC system through an electrospray ionization (ESI) interface and controlled by Masslynx software (version 4.1, Waters Corp., Manchester, UK). The positive ionization mode of ESI source was operated. The optimized conditions for maximum detection of metabolites were as follows: source temperature, 120°C; desolvation temperature, 400°C; capillary voltage, 3.0 kV; sample cone, 30 V and extraction cone, 4.0 V. The cone and desolvation gas (N2) flows were set at 75 and 800 (L/h), respectively. […] Data were collected in centroid mode and the MS^E approach using a dynamic ramp of collision energy was carried out in two scan functions. Function 1 (low energy): mass scan ranged from 100–1000,with 0.2 s scan time and 0.05 s inter-scan delay; Function 2 (high energy): mass scan ranged from 100–1000 with 0.2 s scan time, 0.05 s inter-scan delay, and collision energy ramp of 10–40 V. MS/MS analysis were operated for major metabolites to obtain additional information from product ions since the same collision energy of MS^E in Function 2 could not match each precursor ion.

[2] = LD50 determination of VAS (unpublished data); conditions: in vivo; no published data
Description: (§1) It illustrated that VAS is safe as a potential candidate drug.

[3] = Bioavailability studies of VAS (unpublished data of the laboratory); conditions: in vivo, no published data; for half-life: read-out: elimination half-life (converted)
Description: as §1

[4] = biological target: T1, AChE from Electrophorus electricus (Electrophorus electricus, UniProt O42275); set-up: method as in PMID 23270245, doi:10.1155/2013/71723, PMID 24631841; conditions: previous studies; ref [3], [6]–[8]; read-out: IC50 against AChE; cited from earlier work
T1 construct: purchased Sigma Aldrich Co. (St. Louis, MO, USA)
T1 sequence (O42275 24-633): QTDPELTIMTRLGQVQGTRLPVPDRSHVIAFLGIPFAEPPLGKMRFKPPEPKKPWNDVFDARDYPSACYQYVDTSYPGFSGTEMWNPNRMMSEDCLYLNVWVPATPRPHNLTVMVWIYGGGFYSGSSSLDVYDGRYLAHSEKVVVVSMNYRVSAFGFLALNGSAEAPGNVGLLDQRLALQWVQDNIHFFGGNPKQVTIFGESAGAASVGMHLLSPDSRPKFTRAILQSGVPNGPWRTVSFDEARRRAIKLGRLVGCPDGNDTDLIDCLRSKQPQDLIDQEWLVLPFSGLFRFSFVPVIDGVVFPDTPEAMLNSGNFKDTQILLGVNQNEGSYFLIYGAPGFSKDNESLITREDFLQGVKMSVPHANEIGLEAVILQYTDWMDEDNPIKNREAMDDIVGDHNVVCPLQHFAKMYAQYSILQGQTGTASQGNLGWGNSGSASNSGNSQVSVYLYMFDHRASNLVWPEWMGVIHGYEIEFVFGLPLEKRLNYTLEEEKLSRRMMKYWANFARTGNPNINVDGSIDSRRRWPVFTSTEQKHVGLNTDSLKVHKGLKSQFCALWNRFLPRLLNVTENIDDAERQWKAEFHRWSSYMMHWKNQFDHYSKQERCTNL

BChE from equine serum [5] = biological target: T2, BChE from equine serum (Equus caballus, UniProt P81908); assay: In vitro anticholinesterase assay (UPLC-ESI MS/MS), BChE; assay type: biochemical; conditions: for IC50: means ± SD of three replicate determinations; for fold reduction of BChE inhibitory activity: VAO vs VAS, VAO-3-S vs VAS-3-S, VAS-3-G vs VAS
T2 construct: BChE from equine serum; purchased Sigma Aldrich Co. (St. Louis, MO, USA); host or cells: equine serum
T2 sequence (P81908 whole entry): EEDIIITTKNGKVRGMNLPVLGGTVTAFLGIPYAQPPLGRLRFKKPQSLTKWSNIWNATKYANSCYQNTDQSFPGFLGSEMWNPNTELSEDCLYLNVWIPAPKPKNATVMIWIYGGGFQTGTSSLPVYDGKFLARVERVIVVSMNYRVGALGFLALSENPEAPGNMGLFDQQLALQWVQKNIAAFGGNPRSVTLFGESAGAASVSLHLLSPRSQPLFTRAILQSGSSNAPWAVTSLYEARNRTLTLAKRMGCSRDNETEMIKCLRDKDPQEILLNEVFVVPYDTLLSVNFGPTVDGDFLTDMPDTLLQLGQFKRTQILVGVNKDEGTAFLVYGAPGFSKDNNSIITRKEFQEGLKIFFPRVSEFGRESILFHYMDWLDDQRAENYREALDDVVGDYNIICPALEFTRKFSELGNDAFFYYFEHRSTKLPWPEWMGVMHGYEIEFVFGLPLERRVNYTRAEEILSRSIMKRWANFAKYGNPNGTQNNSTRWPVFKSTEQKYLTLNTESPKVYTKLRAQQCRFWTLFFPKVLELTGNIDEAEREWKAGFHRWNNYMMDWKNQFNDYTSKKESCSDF
Procedure: (§2) VAS and VAO were isolated from P. harmala in our laboratory according to a previously reported method. VAS and VAO structures were elucidated by comparing their spectral data (UV, MS, ^1H-NMR, and ^13C NMR) with the references. The purities of VAS and VAO were determined to be more than 98% through normalization of the peak areas detected by HPLC-DAD, UPLC-MS/MS, ^1H-NMR, and ^13C NMR. AChE from Electrophorus electricus, BChE from equine serum, acetylcholine (ACh) chloride, butyrocholine (BCh) chloride, choline (Ch) chloride, chlormequat (internal standard, IS), glucose 6-phosphate, glucose-6-phosphate dehydrogenase, NADP, UDPGA, alamethicin, fetal bovine serum, dexamethasone, and insulin were purchased from Sigma Aldrich Co. (St. Louis, MO, USA). Tris base and MgCl2 were purchased from Majorbio Biotech Corp., Ltd. (Shanghai, China). MCI Gel CHP 20P was purchased from Mitsubishi Chemical Crop. (Tokyo, Japan). Silica Gel C18 (MB 100-40/75) was purchased from Fuji Silysia Chemical Ltd. (Kasugai, Japan). Acetonitrile and methanol of HPLC grade were purchased from Fisher Scientific Co. (Santa Clara, USA). HPLC grade 96% formic acid was purchased from Tedia Co. (Fairfield, USA). Water was produced with a Milli-Q Academic System (Millipore, Billerica, MA). All other reagents and solvents were either analytical or HPLC grade.
(§3) The AChE and BChE inhibitory activities of VAS and its main metabolites, namely, VAO, VASL, VAOL, VAS-3-S, VAO-3-S, and VAS-3-G, were evaluated based on our previously established method. A 50 μL incubation system composed of 10 μL of the test compound solution (all the test compound solutions were diluted to a series of concentrations with buffer solution before each experiment) and 40 μL of the enzyme solutions (with final concentrations: 0.0035 unit/mL for AChE, or 0.008 unit/mL for BChE) were mixed and pre-incubated for 15 min. Up to 50 μL of substrate solution (final concentration of 5.505 μM for ACh, or 7.152 μM for BCh) was added into the mixture, which was then incubated for 20 min at 25°C. The reaction was terminated by addition of 300 μL of ice acetonitrile solution (0°C), which was immediately dissolved with 1.899 μM IS (chlormequat). The solution was then centrifuged (15,000 × g, 10 min), and the supernatant was used for analysis by UPLC-ESI MS/MS. The inhibitive IC50 values of VAS and its key metabolites on AChE and BChE were calculated using the Prism software (GraphPad Software Inc., San Diego, CA).

rats = assay: Observation of side effects during 21-day oral dosing for urine collection; assay type: in vivo, rat; conditions: 15 rats, oral 100 mg/kg once a day for 21 consecutive days
Procedure: The urine samples used for isolating and purifying the metabolites were collected from 15 rats that were given VAS orally once a day, over 21 consecutive days, at dose of 100 mg/kg body weight. In total, approximately 5 L of urine was collected and centrifuged at 4000 × g for 15 min. The supernatant was then stored at −20°C until use. At the end of experiment, all rats were sacrificed by CO2 asphyxiation.
as §1

[6] = biological target: T1, AChE from Electrophorus electricus; assay: biochemical; assay type: biochemical; conditions: for IC50: means ± SD of three replicate determinations; for fold reduction of AChE inhibitory activity: VAO vs VAS, VAO-3-S vs VAS-3-S, VAS-3-G vs VAS
Description: as §2, with “The purities of VAS and VAO were determined to be more than 98% through normalization of the peak areas detected by HPLC-DAD, UPLC-MS/MS, ^1H-NMR, and ^13C NMR.” left out
as §3

BChE from equine serum [7] = biological target: T2, BChE from equine serum; set-up: method as in PMID 23270245, doi:10.1155/2013/71723, PMID 24631841; conditions: previous studies; ref [3], [6]–[8]; read-out: IC50 against BChE; cited from earlier work
[8] = set-up: method as in ref [36] = [36]; 36 Swamy G , Ravikumar K . Crystal and molecular structures of quinazolines: A ring conformational study . J Chem Crystallogr . 2005; 35 : 183 – 189 .; conditions: in vitro and in vivo; ref [36]; cited from earlier work
[9] = set-up: method as in ref [37] = [37]; 37 Bhide M , Naik P , Ghooi R . Comparative studies on the pharmacological evaluation of vasicine and vasicinone . Bull Haffkin Inst . 1976; 4 : 45 – 50 .; conditions: comparable to sodium cromoglycate; ref [37]; cited from earlier work
[10] = Stability of glucuronide metabolites in collected urine; assay type: physicochemical; conditions: room temperature for an excessively long time, pH > 10

OC1CCN2C1=Nc1ccccc1C2O (stereo not shown) [Metabolite M3-3, 1,2,3,9-tetrahydropyrrolo [2,1-b] quinazolin-3,9-diol]
abundance in plasma [1]: high abundance

O[C@H]1CCN2Cc3ccccc3N=C12 [Metabolite M0, Vasicine]
LD50 [2]: 308 mg/kg | half-life ([3]; after intravenous administration): ~5 h | bioavailability ([3]; after oral administration, read-out: absolute bioavailability): ~50% | half-life ([3]; after oral administration): ~1.5 h | IC50 [4]: 3.24 ± 0.08 µM | IC50 (BChE from equine serum [5]): 0.101 ± 0.003 µM | observable side effects (rats): no any observable side effects | SI (AChE selectivity index, IC50 BChE/IC50 AChE) [6]: 0.030 | IC50 [6]: 3.38 ± 0.03 µM | IC50 (BChE from equine serum [7]): 0.1 µM

O=S(=O)(O)OC1CCN2Cc3ccccc3N=C12 (stereo not shown) [Metabolite M15, 1,2,3,9-tetrahydropyrrolo [2,1-b] quinazolin-3-yl hydrogen sulfate]
IC50 (BChE from equine serum [5]): 9.82 ± 0.925 µM | SI (AChE selectivity index, IC50 BChE/IC50 AChE) [6]: 0.198 | IC50 [6]: 49.6 ± 2.77 µM | abundance in plasma [1]: high abundance

Oc1ccc2c(c1)CN1CCC(O)C1=N2 (stereo not shown) [Metabolite M3-2, vasicinol]
IC50 (BChE from equine serum [5]): 2.46 ± 0.224 µM | SI (AChE selectivity index, IC50 BChE/IC50 AChE) [6]: 0.930 | IC50 [6]: 2.65 ± 0.432 µM

O=c1c2ccccc2nc2n1CCC2O (stereo not shown) [Metabolite M1, vasicinone]
bronchodilatory effects compared with VAS [8]: more bronchodilatory effects than parent VAS | fold reduction of BChE inhibitory activity (BChE from equine serum [5]): 101.0 fold | IC50 (BChE from equine serum [5]): 10.2 ± 2.08 µM | anti-asthmatic activity compared with VAS [9]: more potent anti-asthmatic activity than VAS | SI (AChE selectivity index, IC50 BChE/IC50 AChE) [6]: 0.133 | fold reduction of AChE inhibitory activity [6]: 22.7 fold | IC50 [6]: 76.6 ± 8.46 µM | abundance in plasma [1]: high abundance

O=C(O)C1OC(OC2CCN3Cc4ccccc4N=C23)C(O)C(O)C1O [Metabolite M20-2, 1,2,3,9-tetrahydropyrrolo [2,1-b] quinazolin-3-β-D-glucuronide]
stability in urine sample [10]: hydrolyzed | fold reduction of BChE inhibitory activity (BChE from equine serum [5]): 1027.7 fold | IC50 (BChE from equine serum [5]): 104 ± 15.5 µM | SI (AChE selectivity index, IC50 BChE/IC50 AChE) [6]: 4.998 | IC50 [6]: 20.8 ± 0.329 µM | abundance in plasma [1]: high abundance

O=C(O)[C@H]1O[C@@H](O[C@H]2CCn3c2nc2ccccc2c3=O)[C@H](O)[C@@H](O)[C@@H]1O [Metabolite M21-2, vasicinone-3-O-glucuronide]
stability in urine sample [10]: hydrolyzed | abundance in plasma [1]: high abundance

O=c1c2ccccc2nc2n1CCC2OS(=O)(=O)O (stereo not shown) [Metabolite M16, 9-oxo-1,2,3,9-tetrahydropyrrolo [2,1-b] quinazolin-3-yl hydrogen sulfate]
fold reduction of BChE inhibitory activity (BChE from equine serum [5]): 2.8 fold | IC50 (BChE from equine serum [5]): 27.3 ± 5.03 µM | SI (AChE selectivity index, IC50 BChE/IC50 AChE) [6]: 0.069 | fold reduction of AChE inhibitory activity [6]: 8.0 fold | IC50 [6]: 395 ± 19.5 µM | abundance in plasma [1]: high abundance

O=c1c2cc(O)ccc2nc2n1CCC2O (stereo not shown) [Metabolite M5-2, vasicinolone]
IC50 (BChE from equine serum [5]): 72.4 ± 8.63 µM | SI (AChE selectivity index, IC50 BChE/IC50 AChE) [6]: 1.545 | IC50 [6]: 46.9 ± 2.84 µM
